From paper PMC9250970, “Role of Helical Structure in MBP Immunodominant Peptides for Efficient IgM Antibody Recognition in Multiple Sclerosis” (Frontiers in Chemistry, 2022)
“Also recorded” adds a separate entry of the source.

Legend:
[1] = test system: anti-MBP protein IgM antibodies of MS serum; experiment: Inhibition (competitive) ELISA, MBP protein coated; format: binding, human; details: tested MS serum; peptides 1 and 2 as inhibitors
Excerpt: (§1) Fifteen Multiple Sclerosis (MS) patients were recruited in the Multiple Sclerosis Clinical Care and Research Centre, Department of Neurosciences, Reproductive Sciences and Odontostomatology, Federico II University (Naples, Italy). The relapsing-remitting MS (RR-MS) patients were previously diagnosed after a lumbar puncture, cerebrospinal fluid analysis, and MRI examination and fulfilled the established international diagnostic criteria ([Polman et al., 2011]; [Thompson et al., 2018]). The present study was conducted in accordance with the Declaration of Helsinki. The performed experimental protocols were approved by the Ethics Committee 2006 (protocol n. 120/06) and 2017 (protocol n. 160/17). […]
(§2) Nunc-Immuno MicroWell 96 well polystyrene ELISA plates (NUNC Maxisorb, product code M9410, Merck, Milan, Italy) were coated with a solution 10 μg/ml of the peptide antigens in pure carbonate buffer 0.05 M (pH 9.6) adding 100 μL/well, and microplates were incubated at 4°C overnight. […] Antibody affinity was measured following the competitive ELISA previously reported ([Real-Fernández et al., 2015]). Semi-saturating sera dilution was previously calculated in preliminary titration curves (absorbance 0.7). […] After approximately 30 min, the reaction was stopped with 1 M NaOH solution (50 μL/well), and the absorbance was read in a multichannel ELISA reader (Tecan Sunrise, Männedorf, Switzerland) at 405 nm. […]

[2] = Circular dichroism (secondary structure); format: physicochemical; details: for % helix / effect of temperature on secondary structure / self-aggregation (in words) / secondary structure (in words) / effect of temperature on secondary structure (in words): CD; for % helix: H2O:TFE (50:50, v:v); for effect of temperature on secondary structure / self-aggregation (in words): PBS pH 7.4, 10 to 60°C in increments of 5°C; for effect of temperature on secondary structure (in words): Supplementary Figures S14, S15, various temperatures (10 to 60°C)
Procedure: CD spectra were recorded on JASCO J-815 with increasing temperature from 10 to 60°C in increments of 5°C between λ = 270 and 185 nm. The CD measurements were carried out in H2O, a mixture of H2O:TFE (50:50, v:v) and PBS (phosphate buffered saline, pH 7.4, containing: sodium chloride, potassium chloride, sodium phosphate dibasic, potassium phosphate monobasic). The spectra were registered with the following parameters: 0.2 nm resolution, 1.0 nm bandwidth, 20 mdeg sensitivity, 0.25 s response, 100 nm min^−1 scanning speed, 5 scans, and 0.02 cm cuvette path length. The CD spectra of solvents were recorded and subtracted from the raw data. The spectra were corrected by a baseline that was measured with the identical solvent in the same cell. The CD intensity is given as mean residue molar ellipticity (θ) [deg × cm^2 × dmol^−1].

[3] = NMR conformational analysis in DPC micelles; format: physicochemical; details: 1H NMR (chemical shift and NOE), 100 mM DPC-d38, 50 mM potassium phosphate pH 6.5, 10% D2O, 25°C; remaining regions random coil
Procedure: The samples for NMR spectroscopy were prepared by dissolving the appropriate amount of peptide in 50 mM potassium phosphate buffer (pH 6.5), 10% D2O, and 100 mM DPC-d38. NMR spectra were recorded on a Varian INOVA 600 MHz spectrometer equipped with a z-gradient 5 mm triple-resonance probe head. Spectra were recorded at a temperature of 25°C. The spectra were calibrated relative to TSP (0.00 ppm) as internal standard. One-dimensional (1D) NMR spectra were recorded in the Fourier mode with quadrature detection. The water signal was suppressed by gradient echo ([Hwang and Shaka, 1995]). 2D DQF-COSY ([Piantini et al., 1982]; [Marion and Wüthrich, 1983]), TOCSY ([Braunschweiler and Ernst, 1983]), and NOESY ([Jenner et al., 1979]) spectra were recorded in the phase-sensitive mode. Data block sizes were 2048 addresses in T2 and 512 equidistant T1 values. Before Fourier transformation, the time domain data matrices were multiplied by shifted sin2 functions in both dimensions. A mixing time of 70 ms was used for the TOCSY experiments. NOESY experiments were run with mixing time of 100 ms.

[4] = test system: IgM antibodies in MS patient sera; experiment: Solid-phase ELISA (SP-ELISA), IgM; format: binding, human; details: peptide coated 10 μg/ml; for patients in whose serum IgM antibodies were detected: 1 out of 15 patients, sera 1:100; for IgM antibody detection (in words): fifteen MS patient sera 1:100, carbonate buffer pH 9.6, anti-human IgM 1:200, 405 nm
Excerpt: Fifteen Multiple Sclerosis (MS) patients were recruited in the Multiple Sclerosis Clinical Care and Research Centre, Department of Neurosciences, Reproductive Sciences and Odontostomatology, Federico II University (Naples, Italy). The relapsing-remitting MS (RR-MS) patients were previously diagnosed after a lumbar puncture, cerebrospinal fluid analysis, and MRI examination and fulfilled the established international diagnostic criteria ([Polman et al., 2011]; [Thompson et al., 2018]). The present study was conducted in accordance with the Declaration of Helsinki. The performed experimental protocols were approved by the Ethics Committee 2006 (protocol n. 120/06) and 2017 (protocol n. 160/17). Blood samplings were performed during the routine follow-up of patients, while the healthy control samplings were carried out during routine health checks or blood donations. Sera samples were obtained for diagnostic purposes from patients and healthy controls who had given their informed consent. Blood samples were centrifuged at 4,000 rpm for 10 min and sera supernatant was stored at -20°C until use.
Immunoassays were performed to evaluate IgM or IgG antibodies in sera by SP-ELISA. At this purpose, the synthetic antigens were coated on 96-well plates (NUNC Maxisorb, product code M9410, Merck, Milan, Italy). Coating conditions were set-up independently for each peptide and results are reported in the Supplementary Material. Polystyrene 96-well ELISA plates were coated with 100 μL/well of a 10 μg/ml solution of synthetic peptide antigens 1-6 diluted in pure carbonate buffer 0.05 M (pH 9.6), independently. After overnight incubation at 4°C, plates were washed (3×) using washing buffer. Nonspecific binding sites were blocked with 100 μL/well of fetal bovine serum buffer (10% FBS in washing buffer) at room temperature for 1 h. FBS buffer was removed, and plates were incubated overnight at 4°C with sera (diluted 1:100 in FBS buffer, 100 μL/well). After three washes, plates were treated with 100 μL/well of anti-human IgG or IgM alkaline phosphatase-conjugated specific antibodies diluted in FBS buffer 1:3,000 (IgG) and 1:200 (IgM) for all tested antigens. […] Colorimetric reaction was carried out adding 100 μl of substrate reaction solution (1 mg/ml pNPP, MgCl2 0.01 M in carbonate buffer, pH 9.6) to each well and plates were read at 405 nm using a TECAN plate reader. After 30 min, the reaction was stopped with 1 M NaOH solution (50 μL/well) and the absorbance was read in a multichannel ELISA reader (Tecan Sunrise, Männedorf, Switzerland) at 405 nm. Antibody titer values were calculated as (mean Abs of serum triplicate)—(mean Abs of blank triplicate) representing graphically the calculated mean values. […]

[5] = test system: IgG antibodies in MS patient sera; experiment: Solid-phase ELISA (SP-ELISA), IgG; format: binding; details: fifteen MS patient sera 1:100; peptide coated 10 μg/ml, carbonate buffer pH 9.6; anti-human IgG 1:3,000; 405 nm
Excerpt: as §1
Immunoassays were performed to evaluate IgM or IgG antibodies in sera by SP-ELISA. […] Colorimetric reaction was carried out adding 100 μl of substrate reaction solution (1 mg/ml pNPP, MgCl2 0.01 M in carbonate buffer, pH 9.6) to each well and plates were read at 405 nm using a TECAN plate reader. After 30 min, the reaction was stopped with 1 M NaOH solution (50 μL/well) and the absorbance was read in a multichannel ELISA reader (Tecan Sunrise, Männedorf, Switzerland) at 405 nm. Antibody titer values were calculated as (mean Abs of serum triplicate)—(mean Abs of blank triplicate) representing graphically the calculated mean values. […]

[6] = test system: anti-MBP (76–116) IgM antibodies of MS serum; experiment: Inhibition (competitive) ELISA, MBP (76–116) (2) coated; format: binding, human
Excerpt: as §1, §2

% helix ([2]; 25°C) [%] | secondary structure (in words) ([2]; PBS pH 7.4, 25°C) | secondary structure (in words) ([2]; water, 25°C) | minimum of CD spectrum attributed to beta structures (aggregation) ([2]; PBS pH 7.4, increasing temperature, temperature-induced self-aggregation) | Sequence | inhibition of IgM antibody binding to MBP protein (in words) [1] | effect of temperature on secondary structure / self-aggregation (in words) [2] | effect of temperature on secondary structure (in words) [2] | helical structure, residues [3] | patients in whose serum IgM antibodies were detected [4] [%] | IgM antibody detection (in words) [4] | IgG antibody reactivity (in words) [5] | affinity of IgMs in competitive ELISA, fold greater than longer analogue MBP (76–116) (2) ([6]; competitive ELISA, MS serum, compared to the longer analogue) [fold] | antibody affinity/recognition in competitive experiment (in words) ([6]; solution conditions of the competitive experiments, peptide 1 vs. peptide 2)
3 | random coil structures | randomly structured in water solution | about 205 nm | SQHGRTQDENPVVHFFKNIVTPRTPPPSQGKGRGLSLSRFS [MBP (76–116) (2), elongated synthetic peptide, fragment 76–116 of myelin basic protein] | able to inhibit IgM antibody binding to MBP protein in the tested MS serum with comparable IC50 | shift of the minimum to lower wavelength and a strong decrease of the signal intensity; also recorded: temperature-induced peptide self-aggregation, likely in beta structures | no spectral differences of secondary peptide structure at various temperatures | 87–96 | 7 | IgM antibodies were detected in one representative patient serum; also recorded: able to detect a high, stable, and reproducible IgM antibody titer | – | – | –
– | – | – | – | TPPPSQGK [MBP (99–106) (6)] | – | – | – | – | – | – | nonspecific IgG antibody reactivity | – | –
14 | – | randomly structured in water solution | – | TQDENPVVHFFKNIVTPRTPPPSQGK [MBP (81–106) (1), synthetic peptide, fragment 81–106 of myelin basic protein, covering the immunodominant region] | able to inhibit IgM antibody binding to MBP protein in the tested MS serum with comparable IC50 | no differences of secondary structure at various temperatures | no spectral differences of secondary peptide structure at various temperatures | 87–96 | 7 | slightly recognized IgGs and IgMs | To a lesser extent, also against peptide MBP (81–106) (1); also recorded: slightly recognized IgGs and IgMs | 4 | recognized more efficiently by antibodies in the solution conditions of the competitive experiments
